The record followed here is ChEMBL document CHEMBL4257083, “Novel cytochrome p450 inhibitors and their method of use” (2016).

Data set [1] deals with T1, Steroid 17-alpha-hydroxylase/17,20 lyase (Homo sapiens, UniProt P05093).
T1 sequence (P05093 whole entry): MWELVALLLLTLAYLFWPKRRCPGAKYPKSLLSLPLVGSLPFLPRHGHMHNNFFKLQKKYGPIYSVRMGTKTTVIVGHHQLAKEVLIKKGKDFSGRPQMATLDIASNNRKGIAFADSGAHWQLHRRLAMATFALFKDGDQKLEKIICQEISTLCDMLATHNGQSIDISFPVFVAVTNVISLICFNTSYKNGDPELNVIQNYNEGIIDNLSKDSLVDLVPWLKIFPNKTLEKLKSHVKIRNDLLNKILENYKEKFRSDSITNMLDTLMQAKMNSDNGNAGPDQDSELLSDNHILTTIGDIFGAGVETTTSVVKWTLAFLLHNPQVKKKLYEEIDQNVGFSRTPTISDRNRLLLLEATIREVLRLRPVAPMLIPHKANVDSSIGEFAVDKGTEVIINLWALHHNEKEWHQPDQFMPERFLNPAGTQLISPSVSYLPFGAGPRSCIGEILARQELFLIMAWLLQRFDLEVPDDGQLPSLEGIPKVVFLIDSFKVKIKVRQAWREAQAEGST
Nature of the data set: Inhibition of recombinant CYP17 (unknown origin) expressed in human AD293 cells using 21[3H]-17alpha-hydroxyl-pregnenolone as substrate pretreated for 60 mins followed by substrate addition and measured after 4 hrs by Topcount method. The class given is cell-based.

Data set [2] has as its target T2, Cytochrome P450 11B1, mitochondrial (Homo sapiens, UniProt P15538).
T2 sequence (P15538 whole entry): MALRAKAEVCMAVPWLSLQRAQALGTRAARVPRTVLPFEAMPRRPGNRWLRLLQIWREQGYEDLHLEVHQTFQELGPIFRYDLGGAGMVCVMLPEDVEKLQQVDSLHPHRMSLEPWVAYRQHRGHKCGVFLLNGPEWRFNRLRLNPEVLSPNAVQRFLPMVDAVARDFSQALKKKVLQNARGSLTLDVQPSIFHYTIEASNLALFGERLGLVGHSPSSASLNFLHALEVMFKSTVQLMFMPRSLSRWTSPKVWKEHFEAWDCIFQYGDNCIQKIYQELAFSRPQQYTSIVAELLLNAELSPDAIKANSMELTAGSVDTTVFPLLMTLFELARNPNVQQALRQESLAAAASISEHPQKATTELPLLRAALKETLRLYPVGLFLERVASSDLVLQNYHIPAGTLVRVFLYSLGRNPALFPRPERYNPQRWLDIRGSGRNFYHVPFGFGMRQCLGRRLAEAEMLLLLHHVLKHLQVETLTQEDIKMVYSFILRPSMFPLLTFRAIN
The data set is described as follows: Inhibition of recombinant CYP11B1 (unknown origin) expressed in human AD293 cells using 11-deoxycortisol as substrate pretreated for 60 mins followed by substrate addition and measured after 12 hrs by LC/MS analysis. The class given is cell-based.

The target of the next data set is T3, Steroid 21-hydroxylase (Homo sapiens, UniProt P08686).
T3 sequence (P08686 whole entry): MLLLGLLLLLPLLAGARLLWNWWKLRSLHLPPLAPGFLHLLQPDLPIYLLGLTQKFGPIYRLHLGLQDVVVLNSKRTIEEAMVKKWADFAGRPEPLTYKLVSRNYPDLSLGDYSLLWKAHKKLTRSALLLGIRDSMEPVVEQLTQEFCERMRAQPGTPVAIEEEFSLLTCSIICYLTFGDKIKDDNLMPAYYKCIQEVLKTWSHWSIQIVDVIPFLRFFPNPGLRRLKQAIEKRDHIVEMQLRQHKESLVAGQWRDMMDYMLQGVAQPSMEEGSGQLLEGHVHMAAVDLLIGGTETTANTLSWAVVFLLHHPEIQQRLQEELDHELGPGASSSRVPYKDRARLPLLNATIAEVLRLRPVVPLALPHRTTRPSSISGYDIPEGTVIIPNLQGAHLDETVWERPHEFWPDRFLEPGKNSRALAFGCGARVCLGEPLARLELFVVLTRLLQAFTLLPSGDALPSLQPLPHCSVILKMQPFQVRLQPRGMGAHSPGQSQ
The data set is described as follows: Inhibition of recombinant CYP21 (unknown origin) expressed in human AD293 cells using 17alpha-hydroxyprogesterone as substrate pretreated for 60 mins followed by substrate addition and measured after 45 mins by LC/MS analysis. The class given is cell-based.

Data set [3] can be described thus: Tmax in guinea pig at 10 mg/kg, po. The class given is ADME, organism-based, Cavia porcellus. The following applies: in vivo.
Data set [4] is described as follows: Oral bioavailability in guinea pig at 10 mg/kg. The class given is ADME, organism-based, Cavia porcellus. The following applies: in vivo.

The structures appear in SMILES notation.

`CS(=O)(=O)N1CCN(c2ccc(/C=C/c3cc(F)cc(Cn4ccnc4)c3)cc2)CC1`: the IC50 – broadly, the concentration that inhibits the measured activity by half – in data set [1] is 58 nM; in data set [2], 49 nM; at Steroid 21-hydroxylase, ≥ 10000 nM.
Taken in the same sequence, the figures for `N=C(N)N1CCN(c2ccc(/C=C/c3cc(F)cc(Cn4ccnc4)c3)cc2)CC1` were 1200 nM, 1400 nM and ≥ 10000 nM.
Taken in the same sequence, the figures for `N#CCS(=O)(=O)N1CCN(c2ccc(/C=C/c3cc(F)cc(Cn4ccnc4)c3)cc2)CC1` were 86 nM, 73 nM and ≥ 10000 nM.
With `Clc1cc(/C=C/c2ccc(N3CCN(C4=NCCO4)CC3)cc2)cc(-c2ccncc2)c1`, the 50% inhibitory concentration (IC50) in data set [1] is 5 nM; in data set [2], 3500 nM; on Steroid 21-hydroxylase, 1200 nM.
Taken in the same sequence, the figures for `CC(C)S(=O)(=O)N1CCN(c2ccc(/C=C/c3cc(Cl)cc(-c4ccncc4)c3)cc2)CC1` were 5 nM, 58 nM and 565 nM.
As for `O=S(=O)(C1CC1)N1CCN(c2ccc(/C=C/c3cc(F)cc(-c4ccncc4)c3)cc2)CC1`, the time of peak concentration (Tmax) (in general, the time at which the peak concentration occurs) in data set [3] stood at 8 h.
In the case of `O=S(=O)(C1CC1)N1CCN(c2ccc(/C=C/c3cc(Cl)cc(-c4ccncc4)c3)cc2)CC1`, the values for the IC50 (in data set [1]; in data set [2]; on Steroid 21-hydroxylase) were 5 nM, 51 nM and 416 nM, respectively.
For `O=[N+]([O-])c1cc(S(=O)(=O)N2CCN(c3ccc(/C=C/c4cc(Cl)cc(Cn5ccnc5)c4)cc3)CC2)ccc1Cl` the same measures were 106 nM, 57 nM and ≥ 10000 nM.
As to `O=S(=O)(CCCCl)N1CCN(c2ccc(/C=C/c3cc(Cl)cc(Cn4ccnc4)c3)cc2)CC1`, the values for the concentration for half-maximal inhibition (IC50) (in data set [1]; in data set [2]; on Steroid 21-hydroxylase) were 31 nM, 13 nM and 2870 nM, respectively.
As for `N=C(N)N1CCN(c2ccc(/C=C/c3cc(Cl)cc(-c4ccncc4)c3)cc2)CC1`, the 50% inhibitory concentration (IC50) in data set [2] was 10000 nM; on Steroid 21-hydroxylase it was ≥ 10000 nM.
In the case of `O=C(c1cccnc1)N1CCN(c2ccc(/C=C/c3cc(Cl)cc(Cn4ccnc4)c3)cc2)CC1`, the IC50 was 26 nM in data set [1], 4.9 nM in data set [2] and ≥ 10000 nM on Steroid 21-hydroxylase.
Taken in the same sequence, the figures for `CS(=O)(=O)N1CCN(c2ccc(/C=C/c3cc(F)cc(-c4ccncc4)c3)cc2)CC1` were 5 nM, 200 nM and 740 nM.
For `CC(=O)N1CCN(c2ccc(/C=C/c3cc(F)cc(-c4ccncc4)c3)cc2)CC1`, the IC50 was 4.6 to 5 nM in data set [1], 1200 nM in data set [2] and 430 nM at Steroid 21-hydroxylase. In data set [3], the time of peak concentration (Tmax) was determined as 3 h. Moreover, in data set [4], the F amounted to 184.21%.
As to `O=S(=O)(C1CC1)N1CCN(c2ccc(/C=C/c3cc(Cl)cc(Cn4ccnc4)c3)cc2)CC1`, the half-maximal inhibitory concentration (IC50) in data set [2] is 22 nM; on Steroid 21-hydroxylase, 340 nM.
As for `CS(=O)(=O)N1CCN(c2ccc(/C=C/c3cc(Cl)cc(Cn4ccnc4)c3)cc2)CC1`, the results for the IC50 (in data set [1]; in data set [2]; on Steroid 21-hydroxylase) were 180 nM, 24 nM and 2200 nM, respectively.
For `CC(C)S(=O)(=O)N1CCN(c2ccc(/C=C/c3cc(Cl)cc(Cn4ccnc4)c3)cc2)CC1` the same measures were 38 nM, 240 nM and 85 nM.
On to `CC(=O)N1CCN(c2ccc(/C=C/c3cc(O)cc(-n4ccnc4)c3)cc2)CC1`, for which the IC50 stood at 220 nM in data set [1], 4800 nM in data set [2] and 1950 nM at Steroid 21-hydroxylase.
As to `Clc1cc(/C=C/c2ccc(N3CCN(C4=NCCO4)CC3)cc2)cc(Cn2ccnc2)c1`, the 50% inhibitory concentration (IC50) in data set [1] is 100 nM; in data set [2], 130 nM; at Steroid 21-hydroxylase, 3500 nM.
For `N#Cc1cccc(S(=O)(=O)N2CCN(c3ccc(/C=C/c4cc(Cl)cc(Cn5ccnc5)c4)cc3)CC2)c1` the same measures were 21 nM, 4 nM and 1200 nM.
Regarding `CC(=O)N1CCN(c2ccc(/C=C/c3cc(O)cc(Cn4ccnc4)c3)cc2)CC1`, the IC50 was 88 nM in data set [1], 51 nM in data set [2] and 2400 nM on Steroid 21-hydroxylase.
Taken in the same sequence, the figures for `O=[N+]([O-])c1cccc(S(=O)(=O)N2CCN(c3ccc(/C=C/c4cc(Cl)cc(Cn5ccnc5)c4)cc3)CC2)c1` were 9 nM, 4 nM and 160 nM.
For `Fc1cc(/C=C/c2ccc(N3CCN(C4=NCCO4)CC3)cc2)cc(-c2ccncc2)c1` the same measures were 5 nM, 1800 nM and 1200 nM.
For `Oc1cc(/C=C/c2ccc(Br)cc2)cc(-n2ccnc2)c1` the same measures were 1200 nM, 1400 nM and ≥ 10000 nM.
`CC(=O)N1CCN(c2ccc(CCc3cc(F)cc(-c4ccncc4)c3)cc2)CC1`: the IC50 in data set [1] was 21 nM; in data set [2] it was 1.4 nM; on Steroid 21-hydroxylase, ≥ 10000 nM.
As to `O=C(c1cccc([N+](=O)[O-])c1)N1CCN(c2ccc(/C=C/c3cc(Cl)cc(Cn4ccnc4)c3)cc2)CC1`, the IC50 in data set [1] is 17 nM; in data set [2], 4 nM; on Steroid 21-hydroxylase, ≥ 10000 nM.
For the molecule `CC(=O)N1CCN(c2ccc(/C=C/c3cc(Cl)cc(Cn4ccnc4)c3)cc2)CC1`, in data set [1], the concentration for half-maximal inhibition (IC50) worked out at 42 nM.
In the case of `Fc1cc(/C=C/c2ccc(N3CCN(C4=NCCCO4)CC3)cc2)cc(Cn2ccnc2)c1`, the IC50 in data set [1] came to 42 nM; in data set [2], 17 nM; on Steroid 21-hydroxylase, 1000 nM.
On to `O=S(=O)(N1CCN(c2ccc(/C=C/c3cc(F)cc(-c4ccncc4)c3)cc2)CC1)C(F)(F)F`, for which, in data set [3], the Tmax was 3.33 h. Further, the bioavailability (as a rule, dose-corrected exposure relative to a reference, in per cent) in data set [4] stood at 22.1%.
With `CCS(=O)(=O)N1CCN(c2ccc(/C=C/c3cc(Cl)cc(Cn4ccnc4)c3)cc2)CC1`, the 50% inhibitory concentration (IC50) was 24 nM in data set [1] and 540 nM at Steroid 21-hydroxylase.
For the molecule `CS(=O)(=O)N1CCN(c2ccc(/C=C/c3cc(Cl)cc(-c4ccncc4)c3)cc2)CC1`, the 50% inhibitory concentration (IC50) in data set [1] was 5 nM; in data set [2], 450 nM; at Steroid 21-hydroxylase it was 840 nM.
For `CC(C)S(=O)(=O)N1CCN(c2ccc(/C=C/c3cc(F)cc(Cn4ccnc4)c3)cc2)CC1` the same measures were 39 nM, 5 nM and 700 nM.
Taken in the same sequence, the figures for `N=C(N)N1CCN(c2ccc(/C=C/c3cc(Cl)cc(Cn4ccnc4)c3)cc2)CC1` were 2500 nM, 1300 nM and ≥ 10000 nM.
Regarding `O=S(=O)(c1c[nH]cn1)N1CCN(c2ccc(/C=C/c3cc(Cl)cc(Cn4ccnc4)c3)cc2)CC1`, the IC50 was 6.2 nM in data set [1], 7 nM in data set [2] and ≥ 10000 nM on Steroid 21-hydroxylase.
`CCS(=O)(=O)N1CCN(c2ccc(/C=C/c3cc(F)cc(-c4ccncc4)c3)cc2)CC1`: the Tmax in data set [3] amounted to 5.33 h. This molecule yielded a bioavailability in data set [4] of 22.3%.
With `Fc1cc(/C=C/c2ccc(N3CCN(C4=NCCO4)CC3)cc2)cc(Cn2ccnc2)c1`, the IC50 is 117 nM in data set [1], 130 nM in data set [2] and ≥ 10000 nM on Steroid 21-hydroxylase.
Take `N=C(N)N1CCN(c2ccc(/C=C/c3cc(F)cc(-c4ccncc4)c3)cc2)CC1`: the 50% inhibitory concentration (IC50) in data set [1] was 18 nM; in data set [2], 3600 nM; at Steroid 21-hydroxylase, ≥ 10000 nM.
